Reference: patent US8901305B2, “Aryl lactam kinase inhibitors” (Bristol-Myers Squibb Company, priority 2012, dated 2014)

Experiments:
[1] = target: T1, AAK1 (full length human) with AP2M1 in HEK293F cells (Homo sapiens, UniProt Q2M2I8); test: HEK281 cell-based assay (phospho-mu2 Western blot in transfected HEK293F cells); settings: 3 hours, inhibition of mu2 phosphorylation
T1 construct: expressed in transfected cells; host or cells: HEK293F
Experimental: HEK293F cells were cultured in media containing DMEM (Gibco, cat. #11965), 10% FBS (SAFC Biosciences, cat. #12103C), 1×GPS (glutamine, penicillin and streptomycin). On day one, cells were plated on a 10 cm dish so that they are ˜80% confluent at time of transfection. Roughly 12 million cells were in a 10 cm dish at time of transfection. On day two, each dish was transfected with 48 ug DNA and 144 ul Lipofectamine 2000 (Invitrogen, cat. #11668-019). The DNA was comprised of a mixture (per 10 cm dish) containing 3 ug AAK1/HA/pIRES (full length human, NCBI accession no. NP_055726.2), 45 μg Flag/AP2MI/pcDNA (full length human), and 1.5 ml OPTI-MEM. The Lipofectamine 2000 is made up of a mixture (per 10 cm dish) containing 144 μl Lipofectamine 2000 and 1.5 ml OPTI-MEM. Each mixture was transferred to individual 15 ml tubes and incubated at RT for 5 minutes, and then the two mixes were combined and incubated at RT for 20 minutes. Growth media was then aspirated from each 10 cm plate and replaced with 10 ml of DMEM+10% FBS (no GPS). Finally, 3 ml DNA/Lipofectamine mix was added to each 10 cm dish and mix gently followed by incubate of plate overnight at 37° C. and 5% CO2.
On day three, compounds were diluted in 100% DMSO at 1000× final concentration, followed by 3-fold serial dilutions for a total of 5 concentrations tested. Four compounds were tested per 10 cm dish. One ul of each compound dilution was then pipetted into a deep-well, 96-well plate, followed by addition of 500 μl DMEM+0.5% FBS into each well for a 2× final concentration of each compound. Cells were resuspended in a 10 cm dish by simple pipetting (HEK293 cells come off the plate that easy at this point) and then transferred to a 50 ml conical tube and pelleted by centrifugation at 1000 rpm for 5 min. Cell pellets were then resuspended in 2.75 ml DMEM+0.5% FBS per 10 cm dish and 100 μl of cell suspension transferred into each well of 96-well TC plate. Finally, 100 μl of 2× compound diluted in DMEM+0.5% FBS was then added into wells containing cell suspension for a 1× final concentration. Plates were then incubated at 37° C. and 5% CO2 for 3 hours followed by transferring of cell suspensions from each well into 12-tube PCR strips. The PCR strips were spun in a tip rack at 1000 rpm for 5 minutes to pellet cells and media was then removed by pipetting without disturbing the cell pellet.
To prepare for Western Blot analysis, cell pellets were resuspend in 40 ul 1×LDS-PAGE sample buffer (Invitrogen, cat. # NP0008)+2× Halt phosphatase and protease inhibitor cocktail (Thermo Scientific, cat. #1861284), followed by sonicating each with microtip sonicator set at 5 for 8-10 seconds. Five ul of 10× NuPage Sample Reducing Agent (with […]) was to each sample followed by heat denaturing at 70 C for 10 min on PCR machine. A total of 10 μl per sample was loaded into each lane of a 4-20% Tris-Glycine Criterion 26-well gel (Biorad, cat. #345-0034) for the phospho-mu2 blot and 10 μl per lane in a 4-12% Bis-Tris (+MES buffer) NuPAGE 26-well gel (Invitrogen, cat. # WG1403BX10) for the mu2 blot. For controls, 2 ng of phospho-mu2 or 20 ng mu2/Flag proteins were loaded in the last well of each gel. After SDS-PAGE, samples on each gel were transferred to PVDF membrane using an iBlot and membranes were blocked for one hour in TBST+5% milk, followed by wash 3× for 5-10 min with TBST. Criterion gels were probed with rabbit anti-phospho-mu2 (1:5000; a rabbit polyclonal antibody produced by New England Peptide and affinity purified at Lexicon) in TBST+5% BSA, whereas, NuPAGE gels were probed with mouse anti-Flag (1:500; Sigma, cat. # F1804) in TBST+5% milk, and these primary antibodies were incubated overnight at 4° C. on a rocker. […]

GST-Xa-hAAK1 = target: T2, GST-Xa-hAAK1 (Homo sapiens, UniProt Q2M2I8); test: AAK1 kinase assay; format: biochemical; settings: ATP 22 μM, 3 hours at room temperature
T2 construct: made in house
Experimental: The assays were performed in U-bottom 384-well plates. […] The reactions were initiated by the combination of bacterially expressed, GST-Xa-hAAK1 with substrates and test compounds. The reactions were incubated at room temperature for 3 hours and terminated by adding 60 μl of 35 mM EDTA buffer to each sample. The reactions were analyzed on the Caliper LabChip 3000 (Caliper, Hopkinton, Mass.) by electrophoretic separation of the fluorescent substrate and phosphorylated product. […] Compounds were dissolved at 10 mM in dimethylsulfoxide (DMSO) and evaluated at eleven concentrations. IC50 values were derived by non-linear regression analysis.

T1 sequence (Q2M2I8 whole entry): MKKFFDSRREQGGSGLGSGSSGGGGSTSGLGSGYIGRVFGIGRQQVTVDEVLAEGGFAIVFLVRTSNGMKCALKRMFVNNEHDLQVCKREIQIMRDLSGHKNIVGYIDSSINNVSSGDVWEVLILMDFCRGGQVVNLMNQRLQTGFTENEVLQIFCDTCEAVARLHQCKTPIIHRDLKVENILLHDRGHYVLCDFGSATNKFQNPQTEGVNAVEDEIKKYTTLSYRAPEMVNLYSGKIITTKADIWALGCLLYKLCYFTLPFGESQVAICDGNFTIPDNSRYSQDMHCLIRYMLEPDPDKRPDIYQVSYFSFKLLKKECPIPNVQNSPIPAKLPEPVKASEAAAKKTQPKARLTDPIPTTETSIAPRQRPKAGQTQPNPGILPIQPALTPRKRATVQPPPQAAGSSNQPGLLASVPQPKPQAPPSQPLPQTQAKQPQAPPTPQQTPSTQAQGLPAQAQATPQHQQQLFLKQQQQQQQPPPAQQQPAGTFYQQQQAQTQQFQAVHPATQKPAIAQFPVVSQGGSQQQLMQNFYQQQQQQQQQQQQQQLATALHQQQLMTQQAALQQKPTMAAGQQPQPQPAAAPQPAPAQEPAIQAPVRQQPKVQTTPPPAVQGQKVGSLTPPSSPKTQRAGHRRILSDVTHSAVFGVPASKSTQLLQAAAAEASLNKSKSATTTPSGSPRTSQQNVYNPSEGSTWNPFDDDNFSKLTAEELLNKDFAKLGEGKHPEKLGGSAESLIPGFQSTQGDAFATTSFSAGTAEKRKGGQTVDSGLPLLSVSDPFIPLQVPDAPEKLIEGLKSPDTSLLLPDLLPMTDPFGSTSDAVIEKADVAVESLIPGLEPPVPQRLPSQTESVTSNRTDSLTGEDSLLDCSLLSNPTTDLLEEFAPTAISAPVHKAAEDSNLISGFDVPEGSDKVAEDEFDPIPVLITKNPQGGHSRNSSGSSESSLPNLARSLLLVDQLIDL
T2 sequence (Q2M2I8 whole entry): as above

Row | SMILES | IC50 [1] | IC50 (GST-Xa-hAAK1; given as IC50 range) | IC50 ([1]; given as IC50 range) | IC50 (GST-Xa-hAAK1)
1 | Cc1nccc2c1c(=O)[nH]c1cc(OC[C@@H](N)CC(C)C)c(Br)cc12 [Example 49, (S)-8-(2-amino-4-methylpentyloxy)-9-bromo-4-methylbenzo[c][2,7]naphthyridin-5(6H)-one] | 0.0006 µM |  |  | 
2 | CC(C)C[C@H](N)COc1c(Cl)cc2c3ccncc3c(=O)n(C)c2c1Cl [Example 10, (S)-8-((2-amino-4-methylpentyl)oxy)-7,9-dichloro-6-methylbenzo[c][2,7]naphthyridin-5(6H)-one] | 0.029 µM |  |  | 
3 | CC(C)C[C@H](N)COc1cc2c(cc1F)c1ccnc(N)c1c(=O)n2C [Example 52, (S)-4-amino-8-(2-amino-4-methylpentyloxy)-9-fluoro-6-methylbenzo[c][2,7]naphthyridin-5(6H)-one] | 0.0024 µM | 0.001 to 0.01 µM |  | 
4 | CC(C)C[C@H](N)COc1cc2c(cc1C(C)C)c1ccncc1c(=O)n2C [Example 47, (S)-8-(2-amino-4-methylpentyloxy)-9-isopropyl-6-methylbenzo[c][2,7]naphthyridin-5(6H)-one] |  |  | 0.01 to 0.1 µM | 0.0045 µM
5 | CC(C)C[C@H](N)COc1ccc2c(c1)[nH]c(=O)c1cnccc12 [Example 1, (S)-8-(2-amino-4-methylpentyloxy)benzo[c][2,7]naphthyridin-5(6H)-one] | 0.014 µM |  |  | 0.0057 µM
6 | CC(C)CC(C)(N)COc1ccc2c3ccncc3c(=O)n(C)c2c1 (single isomer, unassigned) [Example 58, 8-((2-amino-2,4-dimethylpentyl)oxy)-6-methylbenzo[c][2,7]naphthyridin-5(6H)-one] |  |  | 0.01 to 0.1 µM | 0.011 µM
7 | Cc1nccc2c1c(=O)n(C)c1cc(OC[C@@H](N)CC(C)C(F)(F)F)ccc21 (single isomer, unassigned) [Example 88] |  | 0.001 to 0.01 µM | 0.01 to 0.1 µM | 
8 | CC(C)C[C@H](N)COc1cc2c(cc1C#N)c1ccncc1c(=O)n2C [Example 5, (S)-8-((2-amino-4-methylpentyl)oxy)-6-methyl-5-oxo-5,6 dihydrobenzo[c][2,7]naphthyridine-9-carbonitrile] | 0.0025 µM |  |  | 
9 | Cc1cc2c3ccncc3c(=O)n(C)c2cc1OC[C@@H](N)CC(C)C [Example 4, (S)-8-((2-amino-4-methylpentyl)oxy)-6,9-dimethylbenzo[c][2,7]naphthyridin-5(6H)-one] | 0.0024 µM |  |  | 
10 | Cc1nccc2c1c(=O)n(C)c1cc(OC[C@H](CC(C)C)N(C)C)ccc21 [Example 40, (S)-8-((2-(dimethylamino)-4-methylpentyl)oxy)-4,6-dimethylbenzo[c][2,7]naphthyridin-5(6H)-one] |  |  |  | 0.123 µM
11 | CCc1cc2c3ccnc(C)c3c(=O)n(C)c2cc1OC[C@@H](N)CC(C)C [Example 36, (S)-8-((2-amino-4-methylpentyl)oxy)-9-ethyl-4,6-dimethylbenzo[c][2,7]naphthyridin-5(6H)-one] |  |  |  | 0.00035 µM

Results, then the compound that gave them:

Row | IC50 [1] | IC50 (GST-Xa-hAAK1; given as IC50 range) | IC50 ([1]; given as IC50 range) | IC50 (GST-Xa-hAAK1) | SMILES
12 | 0.0052 µM | 0.001 to 0.01 µM |  |  | Cc1nccc2c1c(=O)[nH]c1cc(OC[C@@H](N)CC(C)C)c(F)cc12 [Example 101, (S)-8-(2-amino-4-methylpentyloxy)-9-fluoro-4-methylbenzo[c][2,7]naphthyridin-5(6H)-one]
13 |  | 0.001 to 0.01 µM | 0.01 to 0.1 µM |  | CC(C)CC(C)(N)COc1ccc2c3ccncc3c(=O)n(C)c2c1 (single isomer, unassigned) [Example 59, 8-((2-amino-2,4-dimethylpentyl)oxy)-6-methylbenzo[c][2,7]naphthyridin-5(6H)-one]
14 |  |  | 0.001 to 0.01 µM |  | CN[C@H](COc1cc2c(cc1C#N)c1ccnc(C)c1c(=O)n2C)CC(C)C [Example 65, (S)-4,6-dimethyl-8-(4-methyl-2-(methylamino)pentyloxy)-5-oxo-5,6-dihydrobenzo[c][2,7]naphthyridine-9-carbonitrile]
15 |  | 0.001 to 0.01 µM | 0.01 to 0.1 µM |  | Cc1nccc2c1c(=O)[nH]c1c(F)c(OC[C@@H](N)CC(C)C)c(Cl)cc12 [Example 103, (S)-8-(2-amino-4-methylpentyloxy)-9-chloro-7-fluoro-4-methylbenzo[c][2,7]naphthyridin-5(6H)-one]
16 |  |  | 0.01 to 0.1 µM | 0.0039 µM | Cc1nccc2c1c(=O)n(C)c1cc(OC[C@](C)(N)CC(C)C)ccc21 (single isomer, unassigned) [Example 37]
17 |  | < 0.001 µM | < 0.001 µM |  | Cc1nccc2c1c(=O)n(C)c1cc(OC[C@@H](N)CC(C)C)c(-c3cnco3)cc21 [Example 72, (S)-8-(2-amino-4-methylpentyloxy)-4,6-dimethyl-9-(oxazol-5-yl)benzo[c][2,7]naphthyridin-5(6H)-one]
18 |  | 0.001 to 0.01 µM | 0.001 to 0.01 µM |  | Cc1nccc2c1c(=O)n(C)c1cc(OC[C@H](N)CC(C)C)c(Cl)cc21 [Example 20, (R)-8-((2-amino-4-methylpentyl)oxy)-9-chloro-4,6-dimethylbenzo[c][2,7]naphthyridin-5(6H)-one]
19 |  | 0.001 to 0.01 µM | 0.001 to 0.01 µM |  | Cn1c(=O)c2cnccc2c2cc(C#N)c(OCC(N)CCC(F)(F)F)cc21 (centres unmarked) [Example 56, 8-((2-amino-5,5,5-trifluoropentyl)oxy)-6-methyl-5-oxo-5,6 dihydrobenzo[c][2,7]naphthyridine-9-carbonitrile]
20 |  | 0.01 to 0.1 µM | 0.01 to 0.1 µM |  | Cc1nccc2c1c(=O)n(C)c1cc(OC[C@H](N)CC(C)C)ccc21 [Example 19, (R)-8-((2-amino-4-methylpentyl)oxy)-4,6-dimethylbenzo[c][2,7]naphthyridin-5(6H)-one]
21 | 0.0003 µM |  |  |  | Cc1nccc2c1c(=O)n(C)c1cc(OC[C@@H](N)CC(C)C)c(C(F)F)cc21 [Example 27, (S)-8-((2-amino-4-methylpentyl)oxy)-9-(difluoromethyl)-4,6-dimethylbenzo[c][2,7]naphthyridin-5(6H)-one]
22 | 0.005 µM |  |  |  | CC(C)C[C@H](N)COc1cc2c(cc1Cl)c1ccncc1c(=O)n2C [Example 43, (S)-8-((2-amino-4-methylpentyl)oxy)-9-chloro-6-methylbenzo[c][2,7]naphthyridin-5(6H)-one]
23 |  | 0.01 to 0.1 µM |  |  | Cc1nccc2c1c(=O)n(C)c1cc(OC[C@@H](N)CC(C)C)c(OC(F)F)cc21 [Example 90, (S)-8-((2-amino-4-methylpentyl)oxy)-9-(difluoromethoxy)-4,6-dimethylbenzo[c][2,7]naphthyridin-5(6H)-one]
24 |  | 0.01 to 0.1 µM |  |  | CN[C@H](COc1ccc2c3ccnc(C)c3c(=O)n(C)c2c1)CC(C)C [Example 95, (S)-4,6-dimethyl-8-(4-methyl-2-(methylamino)pentyloxy)benzo[c][2,7]naphthyridin-5(6H)-one]
25 |  | 0.01 to 0.1 µM |  |  | CC(C)C[C@H](N)COc1ccc2c3ccncc3c(=O)n(CC3CC3)c2c1 [Example 13, (S)-8-((2-amino-4-methylpentyl)oxy)-6-(cyclopropylmethyl)benzo[c][2,7]naphthyridin-5(6H)-one]
